From PubChem BioAssay AID2060495 (Molecular Pharmacology Branch, DTP, NCI, 2025)

Test system: 521955-158-R2-J5-PDC complex spheroid viability
Assay: Anticancer human tumor 521955-158-R2-J5-PDC patient-derived pancreatic carcinoma cell line growth inhibition [GQUAD]
Conditions: for IC50: curve of first compound; for viability, T/C: stronger effect = lower value
In short: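 Multi-cell-type spheroids of tumor cells with HUVEC and mesenchymal stem cells, treated with drug combinations. Concentrations descend in half-log steps from near clinical Cmax, or from 10 microM where Cmax is unknown; viability read-out.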

[1] = second compound 0.0316 µM, first compound 0.0316 µM
[2] = second compound 0.0316 µM, first compound 0.1 µM
[3] = second compound 0.0316 µM, first compound 0.316 µM
[4] = second compound 0.0316 µM, first compound 1 µM
[5] = second compound 0.0316 µM, first compound 3.16 µM
[6] = second compound 0.0316 µM, first compound 10 µM
[7] = second compound 0.1 µM, first compound 0.0316 µM
[8] = second compound 0.1 µM, first compound 0.1 µM
[9] = second compound 0.1 µM, first compound 0.316 µM
[10] = second compound 0.1 µM, first compound 1 µM
[11] = second compound 0.1 µM, first compound 3.16 µM
[12] = second compound 0.1 µM, first compound 10 µM
[13] = second compound 0.316 µM, first compound 0.0316 µM
[14] = second compound 0.316 µM, first compound 0.1 µM
[15] = second compound 0.316 µM, first compound 0.316 µM
[16] = second compound 0.316 µM, first compound 1 µM
[17] = second compound 0.316 µM, first compound 3.16 µM
[18] = second compound 0.316 µM, first compound 10 µM
[19] = second compound 1 µM, first compound 0.0316 µM
[20] = second compound 1 µM, first compound 0.1 µM
[21] = second compound 1 µM, first compound 0.316 µM
[22] = second compound 1 µM, first compound 1 µM
[23] = second compound 1 µM, first compound 3.16 µM
[24] = second compound 1 µM, first compound 10 µM
[25] = second compound 3.16 µM, first compound 0.0316 µM
[26] = second compound 3.16 µM, first compound 0.1 µM
[27] = second compound 3.16 µM, first compound 0.316 µM
[28] = second compound 3.16 µM, first compound 1 µM
[29] = second compound 3.16 µM, first compound 3.16 µM
[30] = second compound 3.16 µM, first compound 10 µM
[31] = second compound 10 µM, first compound 0.0316 µM
[32] = second compound 10 µM, first compound 0.1 µM
[33] = second compound 10 µM, first compound 0.316 µM
[34] = second compound 10 µM, first compound 1 µM
[35] = second compound 10 µM, first compound 3.16 µM
[36] = second compound 10 µM, first compound 10 µM
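Further: spheroids exposed to agents for one week before reading.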
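Wherever viability, T/C is given: 100% = DMSO vehicle control viability.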

Question: Which IC50 (second compound 0.0316 µM) does the source give for `COc1cc(C2c3cc4c(cc3C(OC3OC5COC(C)OC5C(O)C3O)C3COC(=O)C23)OCO4)cc(OC)c1O` (stereo unspecified) + Cc1[nH]c2ccc(F)cc2c1-c1nc2c3cccnc3c3ncccc3c2[nH]1 here?
Answer: 645 nM

Question: What about the IC50 (second compound 0.1 µM) of the same compound?
Answer: 576 nM

Question: What about the IC50 (second compound 0.316 µM) of the same compound?
Answer: 661 nM

Question: And the IC50 (second compound 1 µM)?
Answer: 628 nM

Question: And the IC50 (second compound 3.16 µM)?
Answer: 653 nM

Question: What about the IC50 (second compound 10 µM) of the same compound?
Answer: 556 nM

Question: And the viability, T/C [1]?
Answer: 99.5%

Question: And the viability, T/C [2]?
Answer: 72.6%

Question: What about the viability, T/C [3] of the same compound?
Answer: 73%

Question: And the viability, T/C [4]?
Answer: 41%

Question: What about the viability, T/C [5] of the same compound?
Answer: 14%

Question: And the viability, T/C [6]?
Answer: 9.66%

Question: What about the viability, T/C [7] of the same compound?
Answer: 81%

Question: What about the viability, T/C [8] of the same compound?
Answer: 102%

Question: What about the viability, T/C [9] of the same compound?
Answer: 70.6%

Question: And the viability, T/C [10]?
Answer: 29.8%

Question: And the viability, T/C [11]?
Answer: 15.1%

Question: And the viability, T/C [12]?
Answer: 10.7%

Question: And the viability, T/C [13]?
Answer: 104%

Question: And the viability, T/C [14]?
Answer: 94.9%

Question: What about the viability, T/C [15] of the same compound?
Answer: 76.3%

Question: And the viability, T/C [16]?
Answer: 34%

Question: And the viability, T/C [17]?
Answer: 18.7%

Question: And the viability, T/C [18]?
Answer: 7.53%

Question: What about the viability, T/C [19] of the same compound?
Answer: 84.2%

Question: And the viability, T/C [20]?
Answer: 114%

Question: And the viability, T/C [21]?
Answer: 82.2%

Question: And the viability, T/C [22]?
Answer: 27.6%

Question: And the viability, T/C [23]?
Answer: 15.4%

Question: What about the viability, T/C [24] of the same compound?
Answer: 9.36%

Question: What about the viability, T/C [25] of the same compound?
Answer: 74.8%

Question: What about the viability, T/C [26] of the same compound?
Answer: 100%

Question: And the viability, T/C [27]?
Answer: 73.1%

Question: What about the viability, T/C [28] of the same compound?
Answer: 35.6%

Question: And the viability, T/C [29]?
Answer: 14.7%

Question: And the viability, T/C [30]?
Answer: 11.6%

Question: What about the viability, T/C [31] of the same compound?
Answer: 96.3%

Question: And the viability, T/C [32]?
Answer: 94%

Question: What about the viability, T/C [33] of the same compound?
Answer: 66.8%

Question: And the viability, T/C [34]?
Answer: 31.9%

Question: What about the viability, T/C [35] of the same compound?
Answer: 17.1%

Question: What about the viability, T/C [36] of the same compound?
Answer: 12.4%

Question: What does the source list for `Nc1ccn(C2OC(CO)C(O)C2(F)F)c(=O)n1` (stereo unspecified) + Cc1cnc(CNC(=O)c2c(=O)c3ccc(N4CCCN(C)CC4)nc3n3c2sc2ccccc23)cn1?
Answer: IC50 (second compound 0.0316 µM): 159 nM; IC50 (second compound 0.1 µM): 85.7 nM; IC50 (second compound 0.316 µM): < 31.6 nM; IC50 (second compound 1 µM): < 31.6 nM; IC50 (second compound 3.16 µM): < 31.6 nM; IC50 (second compound 10 µM): < 31.6 nM; viability, T/C [1]: 67.4%; viability, T/C [2]: 63.6%; viability, T/C [3]: 30.6%; viability, T/C [4]: 12.9%; viability, T/C [5]: 8.38%; viability, T/C [6]: 8.43%; viability, T/C [7]: 57.4%; viability, T/C [8]: 51.2%; viability, T/C [9]: 29%; viability, T/C [10]: 20.9%; viability, T/C [11]: 7.8%; viability, T/C [12]: 7.55%; viability, T/C [13]: 36%; viability, T/C [14]: 27.7%; viability, T/C [15]: 20.9%; viability, T/C [16]: 12.8%; viability, T/C [17]: 9.07%; viability, T/C [18]: 7.49%; viability, T/C [19]: 20.2%; viability, T/C [20]: 19.9%; viability, T/C [21]: 15.2%; viability, T/C [22]: 9.52%; viability, T/C [23]: 9.75%; viability, T/C [24]: 8.51%; viability, T/C [25]: 16%; viability, T/C [26]: 17.8%; viability, T/C [27]: 15.9%; viability, T/C [28]: 8.29%; viability, T/C [29]: 4.92%; viability, T/C [30]: 2.37%; viability, T/C [31]: 17%; viability, T/C [32]: 15.7%; viability, T/C [33]: 15.1%; viability, T/C [34]: 6.25%; viability, T/C [35]: 4.12%; viability, T/C [36]: 5.49%

Question: Which results are given for `CC1COCCN1c1cc(C2(S(C)(=N)=O)CC2)nc(-c2ccnc3[nH]ccc23)n1` (stereo unspecified) + Cc1[nH]c2ccc(F)cc2c1-c1nc2c3cccnc3c3ncccc3c2[nH]1?
Answer: IC50 (second compound 0.0316 µM): 698 nM; IC50 (second compound 0.1 µM): 793 nM; IC50 (second compound 0.316 µM): 736 nM; IC50 (second compound 1 µM): 712 nM; IC50 (second compound 3.16 µM): 806 nM; IC50 (second compound 10 µM): 724 nM; viability, T/C [1]: 113%; viability, T/C [2]: 103%; viability, T/C [3]: 114%; viability, T/C [4]: 22.6%; viability, T/C [5]: 10.1%; viability, T/C [6]: 11.7%; viability, T/C [7]: 96.6%; viability, T/C [8]: 109%; viability, T/C [9]: 111%; viability, T/C [10]: 35.9%; viability, T/C [11]: 8.56%; viability, T/C [12]: 8.84%; viability, T/C [13]: 108%; viability, T/C [14]: 91.7%; viability, T/C [15]: 101%; viability, T/C [16]: 31.7%; viability, T/C [17]: 9.15%; viability, T/C [18]: 10.3%; viability, T/C [19]: 93.2%; viability, T/C [20]: 104%; viability, T/C [21]: 117%; viability, T/C [22]: 27.1%; viability, T/C [23]: 11.5%; viability, T/C [24]: 11.7%; viability, T/C [25]: 85.2%; viability, T/C [26]: 105%; viability, T/C [27]: 99.1%; viability, T/C [28]: 39.3%; viability, T/C [29]: 13.7%; viability, T/C [30]: 8.99%; viability, T/C [31]: 109%; viability, T/C [32]: 105%; viability, T/C [33]: 110%; viability, T/C [34]: 27.4%; viability, T/C [35]: 14.7%; viability, T/C [36]: 10.9%
